Experimental data: patent US20230085307A1, “PYRIDAZINONE COMPOUND AND HERBICIDE” (NISSAN CHEMICAL CORPORATION, priority 2019, published 2023)

Key:
[1] = test system: wild oat; assay: Test Example 5: herbicidal effect by foliage application, plastic box (Table 20, symbol I); format: in vivo, wild oat (Avena fatua); conditions: foliage application, 320 g/ha, three weeks after application
How it was run: (§1)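 Foliar spray test: emulsion formulation diluted in water to a set application rate, sprayed onto 14-day-old plants raised in diluvial soil at 25° C to 30° C under glass. Both herbicidal effect and crop effect rated visually three weeks later.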

[2] = test system: green foxtail; assay: Test Example 5: herbicidal effect by foliage application, plastic box (Table 20, symbol G); format: in vivo, green foxtail (Setaria viridis); conditions: foliage application, 320 g/ha, three weeks after application
How it was run: as §1

[3] = test system: Chinese sprangletop; assay: Test Example 3: herbicidal effect by foliage application, Wagner pot (Table 18, symbol D); format: in vivo, chinese sprangletop (Leptochloa chinensis); conditions: amount of applied herbicide 320 g/ha
How it was run: (§2)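 Plants were sown in alluvial soil held under 0.1–0.5 cm standing water and grown 14 days in a greenhouse at 25–30 °C. An emulsifiable formulation, water-diluted to the set dose, was then sprayed onto the foliage, and effects were scored three weeks later using previously defined criteria.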

[4] = test system: blackgrass; assay: Test Example 4: herbicidal effect by soil treatment (Table 19, symbol J); format: in vivo, blackgrass (Alopecurus myosuroides); conditions: amount of applied herbicide 320 g/ha
How it was run: (§3)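 Herbicidal effect was rated 3 weeks after treatment, using the scoring criteria of an earlier test. The compound, formulated as an emulsion and diluted in water to a set herbicide amount, had been sprayed uniformly on soil over freshly sown seeds. Growth took place in a greenhouse at 25° C. to 30° C.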

[5] = test system: chickweed; assay: Test Example 5: herbicidal effect by foliage application, plastic box (Table 20, symbol P); format: in vivo, common chickweed (Stellaria media); conditions: foliage application, 320 g/ha, three weeks after application
How it was run: as §1

[6] = test system: lambsquarters; assay: Test Example 4: herbicidal effect by soil treatment (Table 19, symbol O); format: in vivo, lambsquarters (Chenopodium album); conditions: amount of applied herbicide 320 g/ha
How it was run: as §3

[7] = test system: chickweed; assay: Test Example 4: herbicidal effect by soil treatment (Table 19, symbol P); format: in vivo, common chickweed (Stellaria media); conditions: amount of applied herbicide 320 g/ha
How it was run: as §3

[8] = test system: velvetleaf; assay: Test Example 4: herbicidal effect by soil treatment (Table 19, symbol M); format: in vivo, velvetleaf (Abutilon theophrasti); conditions: amount of applied herbicide 320 g/ha
How it was run: as §3

[9] = test system: barnyard grass; assay: Test Example 4: herbicidal effect by soil treatment (Table 19, symbol H); format: in vivo, barnyard grass (Echinochloa crus-galli); conditions: amount of applied herbicide 320 g/ha
How it was run: as §3

[10] = test system: late watergrass; assay: Test Example 1: herbicidal activity, application before weed generation under submerged conditions (Table 16, symbol A); format: in vivo, late watergrass (Echinochloa oryzicola); conditions: amount of applied herbicide 320 g/ha
How it was run: (§4)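 Submerged Wagner pots (alluvial soil, 4 cm water) sown with weed seeds and planted with 2.5-leaf rice seedlings; emulsifiable concentrate diluted in water applied to water surface on sowing day. Held in greenhouse at 25-30 °C; injury scored 0-5 by herbicidal rate after three weeks.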

[11] = test system: southern crabgrass; assay: Test Example 5: herbicidal effect by foliage application, plastic box (Table 20, symbol F); format: in vivo, southern crabgrass (Digitaria ciliaris); conditions: foliage application, 320 g/ha, three weeks after application
How it was run: as §1

[12] = test system: southern crabgrass; assay: Test Example 4: herbicidal effect by soil treatment (Table 19, symbol F); format: in vivo, southern crabgrass (Digitaria ciliaris); conditions: amount of applied herbicide 320 g/ha
How it was run: as §3

[13] = test system: lambsquarters; assay: Test Example 5: herbicidal effect by foliage application, plastic box (Table 20, symbol O); format: in vivo, lambsquarters (Chenopodium album); conditions: foliage application, 320 g/ha, three weeks after application
How it was run: as §1

[14] = test system: rice flat sedge; assay: Test Example 3: herbicidal effect by foliage application, Wagner pot (Table 18, symbol E); format: in vivo, rice flat sedge (Cyperus iria); conditions: amount of applied herbicide 320 g/ha
How it was run: as §2

[15] = test system: green foxtail; assay: Test Example 4: herbicidal effect by soil treatment (Table 19, symbol G); format: in vivo, green foxtail (Setaria viridis); conditions: amount of applied herbicide 320 g/ha
How it was run: as §3

[16] = test system: barnyard grass; assay: Test Example 5: herbicidal effect by foliage application, plastic box (Table 20, symbol H); format: in vivo, barnyard grass (Echinochloa crus-galli); conditions: foliage application, 320 g/ha, three weeks after application
How it was run: as §1

[17] = test system: windgrass; assay: Test Example 5: herbicidal effect by foliage application, plastic box (Table 20, symbol L); format: in vivo, windgrass (Apera spica-venti); conditions: foliage application, 320 g/ha, three weeks after application
How it was run: as §1

[18] = test system: windgrass; assay: Test Example 4: herbicidal effect by soil treatment (Table 19, symbol L); format: in vivo, windgrass (Apera spica-venti); conditions: amount of applied herbicide 320 g/ha
How it was run: as §3

[19] = test system: redroot pigweed; assay: Test Example 5: herbicidal effect by foliage application, plastic box (Table 20, symbol N); format: in vivo, redroot pigweed (Amaranthus retroflexus); conditions: foliage application, 320 g/ha, three weeks after application
How it was run: as §1

[20] = test system: velvetleaf; assay: Test Example 5: herbicidal effect by foliage application, plastic box (Table 20, symbol M); format: in vivo, velvetleaf (Abutilon theophrasti); conditions: foliage application, 320 g/ha, three weeks after application
How it was run: as §1

[21] = test system: Italian ryegrass; assay: Test Example 5: herbicidal effect by foliage application, plastic box (Table 20, symbol K); format: in vivo, Italian ryegrass (Lolium multiflorum); conditions: foliage application, 320 g/ha, three weeks after application
How it was run: as §1

[22] = test system: Japanese bulrush; assay: Test Example 1: herbicidal activity, application before weed generation under submerged conditions (Table 16, symbol B); format: in vivo, Japanese bulrush (Schoenoplectus juncoides); conditions: amount of applied herbicide 320 g/ha
How it was run: as §4

[23] = test system: blackgrass; assay: Test Example 5: herbicidal effect by foliage application, plastic box (Table 20, symbol J); format: in vivo, blackgrass (Alopecurus myosuroides); conditions: foliage application, 320 g/ha, three weeks after application
How it was run: as §1

[24] = test system: redroot pigweed; assay: Test Example 4: herbicidal effect by soil treatment (Table 19, symbol N); format: in vivo, redroot pigweed (Amaranthus retroflexus); conditions: amount of applied herbicide 320 g/ha
How it was run: as §3

[25] = test system: false cleavers; assay: Test Example 5: herbicidal effect by foliage application, plastic box (Table 20, symbol Q); format: in vivo, false cleavers (Galium spurium); conditions: foliage application, 320 g/ha, three weeks after application
How it was run: as §1

[26] = test system: oval-leafed pondweed; assay: Test Example 1: herbicidal activity, application before weed generation under submerged conditions (Table 16, symbol C); format: in vivo, oval-leafed pondweed (Monochoria vaginalis); conditions: amount of applied herbicide 320 g/ha
How it was run: as §4

[27] = test system: persian speedwell; assay: Test Example 5: herbicidal effect by foliage application, plastic box (Table 20, symbol R); format: in vivo, Persian speedwell (Veronica persica); conditions: foliage application, 320 g/ha, three weeks after application
How it was run: as §1

[28] = test system: Italian ryegrass; assay: Test Example 4: herbicidal effect by soil treatment (Table 19, symbol K); format: in vivo, Italian ryegrass (Lolium multiflorum); conditions: amount of applied herbicide 320 g/ha
How it was run: as §3

[29] = test system: barnyard grass; assay: Test Example 3: herbicidal effect by foliage application, Wagner pot (Table 18, symbol H); format: in vivo, barnyard grass (Echinochloa crus-galli); conditions: amount of applied herbicide 320 g/ha
How it was run: as §2

[30] = test system: wild oat; assay: Test Example 4: herbicidal effect by soil treatment (Table 19, symbol I); format: in vivo, wild oat (Avena fatua); conditions: amount of applied herbicide 320 g/ha
How it was run: as §3

[31] = test system: persian speedwell; assay: Test Example 4: herbicidal effect by soil treatment (Table 19, symbol R); format: in vivo, Persian speedwell (Veronica persica); conditions: amount of applied herbicide 320 g/ha
How it was run: as §3

Cc1nn(C)c(=O)c(-c2c(-c3ccc(OC(C)C)cc3)sc3cc(F)ccc23)c1O [3-019]
I: wild oat, herbicidal effect grade [1]: 0 (Herbicidal rate of 5% or less (almost no effect)) | G: green foxtail, herbicidal effect grade [2]: 4 (Herbicidal rate of 70% or more and less than 90%) | herbicidal effect on D: Chinese sprangletop [3]: 0 (Herbicidal rate of 5% or less (almost no effect)) | herbicidal effect, J: blackgrass [4]: 0 (Herbicidal rate of 5% or less (almost no effect)) | P: chickweed, herbicidal effect grade [5]: 5 (Herbicidal rate of 90% or more (almost completely withered)) | herbicidal effect, O: lambsquarters [6]: 3 (Herbicidal rate of 40% or more and less than 70%) | herbicidal effect, P: chickweed [7]: 0 (Herbicidal rate of 5% or less (almost no effect)) | herbicidal effect, M: velvetleaf [8]: 0 (Herbicidal rate of 5% or less (almost no effect)) | herbicidal effect, H: barnyard grass [9]: 0 (Herbicidal rate of 5% or less (almost no effect)) | Herbicidal effect, A: late watergrass [10]: 3 (Herbicidal rate of 40% or more and less than 70%) | F: southern crabgrass, herbicidal effect grade [11]: 0 (Herbicidal rate of 5% or less (almost no effect)) | herbicidal effect, F: southern crabgrass [12]: 0 (Herbicidal rate of 5% or less (almost no effect)) | O: lambsquarters, herbicidal effect grade [13]: 0 (Herbicidal rate of 5% or less (almost no effect)) | herbicidal effect on E: rice flat sedge [14]: 3 (Herbicidal rate of 40% or more and less than 70%) | herbicidal effect, G: green foxtail [15]: 2 (Herbicidal rate of 20% or more and less than 40%) | H: barnyard grass, herbicidal effect grade [16]: 3 (Herbicidal rate of 40% or more and less than 70%) | L: windgrass, herbicidal effect grade [17]: 3 (Herbicidal rate of 40% or more and less than 70%) | herbicidal effect, L: windgrass [18]: 0 (Herbicidal rate of 5% or less (almost no effect)) | N: redroot pigweed, herbicidal effect grade [19]: 5 (Herbicidal rate of 90% or more (almost completely withered)) | M: velvetleaf, herbicidal effect grade [20]: 3 (Herbicidal rate of 40% or more and less than 70%) | K: Italian ryegrass, herbicidal effect grade [21]: 3 (Herbicidal rate of 40% or more and less than 70%) | Herbicidal effect, B: Japanese bulrush [22]: 3 (Herbicidal rate of 40% or more and less than 70%) | J: blackgrass, herbicidal effect grade [23]: 3 (Herbicidal rate of 40% or more and less than 70%) | herbicidal effect, N: redroot pigweed [24]: 3 (Herbicidal rate of 40% or more and less than 70%) | Q: false cleavers, herbicidal effect grade [25]: 4 (Herbicidal rate of 70% or more and less than 90%) | Herbicidal effect, C: oval-leafed pondweed [26]: 3 (Herbicidal rate of 40% or more and less than 70%) | R: persian speedwell, herbicidal effect grade [27]: 5 (Herbicidal rate of 90% or more (almost completely withered)) | herbicidal effect, K: Italian ryegrass [28]: 0 (Herbicidal rate of 5% or less (almost no effect)) | herbicidal effect on H: barnyard grass [29]: 3 (Herbicidal rate of 40% or more and less than 70%) | herbicidal effect, I: wild oat [30]: 0 (Herbicidal rate of 5% or less (almost no effect))

CCOc1cc(F)ccc1-c1oc2ccc(C)cc2c1-c1c(O)c(C)nn(C)c1=O [9-011]
herbicidal effect on wild oat (I) [1]: 3 (Herbicidal rate of 40% or more and less than 70%) | herbicidal effect on green foxtail (G) [2]: 2 (Herbicidal rate of 20% or more and less than 40%) | Herbicidal effect on D (Chinese sprangletop), foliage application [3]: 0 (Herbicidal rate of 5% or less (almost no effect)) | J: blackgrass, herbicidal effect grade [4]: 2 (Herbicidal rate of 20% or more and less than 40%) | O: lambsquarters, herbicidal effect grade [6]: 4 (Herbicidal rate of 70% or more and less than 90%) | P: chickweed, herbicidal effect grade [7]: 1 (Herbicidal rate of 5% or more and less than 20%) | M: velvetleaf, herbicidal effect grade [8]: 0 (Herbicidal rate of 5% or less (almost no effect)) | H: barnyard grass, herbicidal effect grade [9]: 0 (Herbicidal rate of 5% or less (almost no effect)) | Herbicidal effect, A: late watergrass [10]: 3 (Herbicidal rate of 40% or more and less than 70%) | herbicidal effect on southern crabgrass (F) [11]: 2 (Herbicidal rate of 20% or more and less than 40%) | F: southern crabgrass, herbicidal effect grade [12]: 2 (Herbicidal rate of 20% or more and less than 40%) | herbicidal effect on lambsquarters (O) [13]: 4 (Herbicidal rate of 70% or more and less than 90%) | Herbicidal effect on E (rice flat sedge), foliage application [14]: 4 (Herbicidal rate of 70% or more and less than 90%) | G: green foxtail, herbicidal effect grade [15]: 0 (Herbicidal rate of 5% or less (almost no effect)) | herbicidal effect on barnyard grass (H) [16]: 4 (Herbicidal rate of 70% or more and less than 90%) | herbicidal effect on windgrass (L) [17]: 1 (Herbicidal rate of 5% or more and less than 20%) | L: windgrass, herbicidal effect grade [18]: 3 (Herbicidal rate of 40% or more and less than 70%) | R: persian speedwell, herbicidal effect grade [31]: 3 (Herbicidal rate of 40% or more and less than 70%) | herbicidal effect on velvetleaf (M) [20]: 3 (Herbicidal rate of 40% or more and less than 70%) | herbicidal effect on Italian ryegrass (K) [21]: 0 (Herbicidal rate of 5% or less (almost no effect)) | Herbicidal effect, B: Japanese bulrush [22]: 2 (Herbicidal rate of 20% or more and less than 40%) | herbicidal effect on blackgrass (J) [23]: 4 (Herbicidal rate of 70% or more and less than 90%) | N: redroot pigweed, herbicidal effect grade [24]: 3 (Herbicidal rate of 40% or more and less than 70%) | herbicidal effect on false cleavers (Q) [25]: 4 (Herbicidal rate of 70% or more and less than 90%) | Herbicidal effect, C: oval-leafed pondweed [26]: 1 (Herbicidal rate of 5% or more and less than 20%) | herbicidal effect on persian speedwell (R) [27]: 4 (Herbicidal rate of 70% or more and less than 90%) | K: Italian ryegrass, herbicidal effect grade [28]: 0 (Herbicidal rate of 5% or less (almost no effect)) | Herbicidal effect on H (barnyard grass), foliage application [29]: 5 (Herbicidal rate of 90% or more (almost completely withered)) | I: wild oat, herbicidal effect grade [30]: 0 (Herbicidal rate of 5% or less (almost no effect))
